From US7476670B2, “Purine derivatives, method for preparing, pharmaceutical compositions and novel use” (Aventis Pharma S.A., priority 2003, dated 2009) come the findings set out here.

Counter-ions that a name gives are not always drawn. Like-named read-outs stand apart in the source and are kept apart here.

Holding throughout (type): biochemical
One experiment has as its target PLK1 (Homo sapiens, UniProt P53350). Nature of the experiment: Assay for inhibition of PLK1 activity. The settings on record: [33P]ATP; read-out: IC50s expressed as micromolar. The method, then: (§1) The inhibition of the kinase activity is determined by measuring the phosphorylation of its substrate peptide.
The assay is carried out in a final volume of 40 μl; all the reagents are prepared in a buffer: • 50 mM HEPES pH 7.5 • 0.03% triton X100 • 10 mM MgCl2 • 5% Glycerol • 1 mM DTT 10 μl of the 10-times concentrated inhibitor are added to 5 μl of enzyme (75 ng final concentration), and 5 μl of peptide (1 μM final concentration), then 2.5 μl of incubation buffer containing 40 μM ATP and 2.5 μl of radiolabeled ATP, [^33P]ATP (500 nCi), are added. After incubation for 15 minutes at ambient temperature, 10 μl of incubation buffer containing 192 nM of substrate. […] Reference method for broth dilution antifungal susceptibility testing of yeasts. Approved Standard M27-A. NCCLS, Villanova, Pa.); the minimum concentration with which a visible decrease is observed in the cloudiness of the cell growth (at least 80% compared to a control without product) is the Minimum Inhibitory Concentration (MIC) of the antifungal agent with respect to the strain tested.

The next experiment concerns the target JNK3 kinase (Homo sapiens, UniProt P53779). As to the kind of experiment: Assay for inhibition of JNK3 activity. The settings on record: fluorescence polarization, ATP 6 μM; read-out: IC50s expressed as micromolar. The method, then: The inhibition of the kinase activity is determined by fluorescence polarization, the JNK3 kinase phosphorylates a peptide detected by adding an anti-phosphopeptide antibody coupled to a fluorescent label.
The assay is carried out in a final volume of 30 μl; all the reagents are prepared in a buffer: • 50 mM HEPES pH 7.5 • 0.03% triton X100 • 10 mM MgCl2 • 5% Glycerol • 1 mM DTT 10 μl of the 10-times concentrated inhibitor are added to 5 μl of enzyme (40 ng final concentration), and 5 μl of incubation buffer containing 100 ng of substrate and 10 μl of ATP (6 μM final concentration) are added.

Another experiment addresses CaCiv1 (Candida albicans, UniProt A0A1D8PH53). Nature of the experiment: Assay for inhibition of CIV-CDK (CIV1) activity. An excerpt:
1) Assay for Inhibition of CIV-CDK (CIV1) Activity
a) Preparation of the Reagents

The target of experiment [1] is Cyclin Dependent kinase 2 (CDK2) (Homo sapiens, UniProt P24941). As to the kind of experiment: Assay for inhibition of CDK2 activity. The settings on record: [33P]ATP, read-out: percentage inhibition at 20 μM. The method, then: The inhibition of the kinase activity of Cyclin Dependent kinase 2 (CDK2) is determined by measuring the phosphorylation of its substrate peptide.
The assay is carried out in a final volume of 50 μl.
The incubation buffer as follows:
• 50 mM Hepes/NaOH pH 7.5 • 10 mM MgCl2 • 1 mM DTT 5 μl of the 10-times concentrated inhibitor are added to 25 μl of incubation buffer containing 0.8 U/μL final concentration of the enzyme; 10 μL of incubation buffer containing 0.0025 mg/ml of peptide substrate are then added and, finally, 10 μL of incubation buffer containing 2 mM ATP and radiolabeled ATP, [^33P]ATP (0.25 μCi), are added. The reaction is stopped after incubation for 10 minutes at 37° C. • Results obtained expressed as percentage inhibition at 20 μM • Example 2 97% • Example 27 97% • Example 30 99% 4) Assay for Inhibition of CDK1 Activity

The target of the next experiment is GSK3beta (Homo sapiens, UniProt P49841). Nature of the experiment: Assay for inhibition of GSK3beta activity. To be noted: [33P]ATP; read-out: IC50s expressed as micromolar. How it is done: as §1
GSK3beta, sequence (P49841 whole entry, species assumed): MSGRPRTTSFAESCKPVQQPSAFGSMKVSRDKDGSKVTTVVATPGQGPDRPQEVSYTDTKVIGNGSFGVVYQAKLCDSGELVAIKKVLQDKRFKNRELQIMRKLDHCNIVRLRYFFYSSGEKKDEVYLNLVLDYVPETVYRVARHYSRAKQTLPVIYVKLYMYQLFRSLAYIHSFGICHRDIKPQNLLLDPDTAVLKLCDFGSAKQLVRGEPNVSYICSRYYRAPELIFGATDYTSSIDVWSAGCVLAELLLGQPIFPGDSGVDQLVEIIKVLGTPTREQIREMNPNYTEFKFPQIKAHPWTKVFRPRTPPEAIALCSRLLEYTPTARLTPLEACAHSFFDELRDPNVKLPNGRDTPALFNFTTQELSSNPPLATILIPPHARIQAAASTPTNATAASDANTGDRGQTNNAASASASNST
The assay is carried out in a final volume of 40 μl; all the reagents are prepared in a buffer: • 50 mM HEPES pH 7.5 • 0.03% triton X100 • 10 mM MgCl2 • 5% Glycerol • 1 mM DTT 10 μl of the 10-times concentrated inhibitor are added to 5 μl of enzyme (20 ng final concentration), and 5 μl of peptide (1 μM final concentration) then 2.5 μof incubation buffer containing 16 μM ATP and 2.5 μl of radiolabeled ATP, [^33P]ATP (50 nCi) are added. After incubation for 15 minutes at ambient temperature, 10 μl of incubation buffer containing 1 μM of substrate.

In another experiment the test system is Abl kinase. Nature of the experiment: Assay for inhibition of Abl activity. The settings on record: fluorescence polarization. The method, then: The inhibition of the kinase activity is determined by fluorescence polarization, the Abl kinase phosphorylates a peptide detected by adding an anti-phosphopeptide antibody coupled to a fluorescent label.
The assay is carried out in a final volume of 50 μl; all the reagents are prepared in a buffer: • 20 mM Hepes/NaOH pH 7.5 • 5 mM MgCl2 • 100 μM Na2VO4 • 1 mM DTT • 100 μM EDTA/NaOH • 0.01% Brij35 5 μl of the 10-times concentrated inhibitor are added to 25 μl of enzyme (1000 U/ml final concentration), (Calbiochem ref 102555). After incubation for 5 minutes at ambient temperature, 10 μL of PolyGT (400 ng/ml final concentration) and 10 μL of ATP (5 μM final concentration) are added. The detection is carried out after incubation for 15 minutes at 30° C. • Results obtained expressed as percentage inhibition at 20 μM • Example 24 100% • Example 2 100% • Example 32 100% 6) Assay for Inhibition of ZAP Kinase Activity

Another experiment deals with T1, ZAP kinase (Homo sapiens, UniProt P43403).
T1 construct: purchased Panvera P2782
T1 sequence (P43403 1-619): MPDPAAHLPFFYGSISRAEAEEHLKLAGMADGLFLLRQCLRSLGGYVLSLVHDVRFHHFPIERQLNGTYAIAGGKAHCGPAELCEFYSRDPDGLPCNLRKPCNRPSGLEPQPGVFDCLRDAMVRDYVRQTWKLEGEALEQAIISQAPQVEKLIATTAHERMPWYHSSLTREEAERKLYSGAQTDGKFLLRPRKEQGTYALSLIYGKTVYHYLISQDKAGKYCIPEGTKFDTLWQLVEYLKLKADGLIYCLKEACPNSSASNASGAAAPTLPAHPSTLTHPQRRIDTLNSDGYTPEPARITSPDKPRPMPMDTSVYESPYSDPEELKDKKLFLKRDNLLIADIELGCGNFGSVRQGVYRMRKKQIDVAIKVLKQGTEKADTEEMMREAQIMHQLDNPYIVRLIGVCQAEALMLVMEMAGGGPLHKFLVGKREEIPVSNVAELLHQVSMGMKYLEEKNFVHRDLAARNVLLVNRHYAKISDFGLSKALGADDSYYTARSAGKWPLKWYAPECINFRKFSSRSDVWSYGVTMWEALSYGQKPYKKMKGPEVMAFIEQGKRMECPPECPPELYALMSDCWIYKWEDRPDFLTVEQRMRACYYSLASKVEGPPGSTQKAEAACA
As to the kind of experiment: Assay for inhibition of ZAP kinase activity. The settings on record: fluorescence polarization, read-out: percentage inhibition at 20 μM. The method, then:
The inhibition of the kinase activity is determined by fluorescence polarization, the ZAP kinase phosphorylates a peptide detected by adding an anti-phosphopeptide antibody coupled to a fluorescent label.
The assay is carried out in a final volume of 50 μl; all the reagents are prepared in a buffer: • 20 mM Tris/HCl pH 7.7 • 7 mM MnCl2 • 50 μM Na2VO4 5 μl of the 10-times concentrated inhibitor are added to 25 μl of enzyme (0.7 μg/ml final concentration) (Panvera ref P2782). After incubation for 5 minutes at ambient temperature, 10 μl of PolyGT (300 ng/ml final concentration) and 10 μl of ATP (0.25 μM final concentration) are added. The detection is carried out after incubation for 15 minutes at ambient temperature. • Results obtained expressed as percentage inhibition at 20 μM • Example 8 98% • Example 20 95% • Example 24 96% 7) Assay for Inhibition of Casein Kinase II Activity

The target of a further experiment is T2, SRC kinase (Homo sapiens, UniProt P12931).
T2 construct: purchased Upstate Biotechnology 14-117
T2 sequence (P12931 whole entry): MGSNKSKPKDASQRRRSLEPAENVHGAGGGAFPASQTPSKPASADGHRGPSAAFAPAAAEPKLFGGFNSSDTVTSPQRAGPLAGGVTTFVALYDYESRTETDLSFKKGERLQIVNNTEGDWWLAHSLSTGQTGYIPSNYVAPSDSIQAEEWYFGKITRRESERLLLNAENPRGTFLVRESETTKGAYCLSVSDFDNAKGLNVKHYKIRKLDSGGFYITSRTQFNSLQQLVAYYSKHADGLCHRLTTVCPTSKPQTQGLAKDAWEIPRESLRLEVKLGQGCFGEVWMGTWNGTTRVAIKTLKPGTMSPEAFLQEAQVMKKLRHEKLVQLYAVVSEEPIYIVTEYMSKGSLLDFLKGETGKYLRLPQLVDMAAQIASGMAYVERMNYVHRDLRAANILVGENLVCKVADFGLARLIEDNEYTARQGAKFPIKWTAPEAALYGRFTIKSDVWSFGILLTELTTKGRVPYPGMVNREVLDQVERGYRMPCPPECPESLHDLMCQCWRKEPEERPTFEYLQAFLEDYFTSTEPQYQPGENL
Nature of the experiment: Assay for inhibition of SRC kinase activity. To be noted: fluorescence polarization, read-out: percentage inhibition at 20 μM. The method, then:
2) Assay for Inhibition of SRC Kinase Activity
The inhibition is determined by fluorescence polarization, the […] kinase phosphorylates a peptide detected by adding an anti-phosphopeptide antibody coupled to a fluorescent label.
The assay is carried out in a final volume of 50 μl; all the reagents are prepared in a buffer: • 25 mM HEPES/NaOH pH 7.6 • 5 mM MgCl2 • 2 mM MnCl2 • 50 μM Na2VO4 5 μl of the 10-times concentrated inhibitor are added to 25 μl of enzyme (12 U/ml final concentration), (Upstate Biotechnology ref 14-117). After incubation for 5 minutes at ambient temperature, 10 μl of PolyGluTyr 4/1 (150 ng/ml final concentration) and 10 μl of ATP (5 μM final concentration) are added. The detection is carried out after incubation for 20 minutes at ambient temperature. • Results obtained expressed as percentage inhibition at 20 μM • Example 8 98% • Example 15 99% • Example 20 99% • Example 24 99% • Example 27 95% • Example 30 99% • Example 32 100% • Example 38 95% 3) Assay for Inhibition of CDK2 Activity

The mark [2] stands for this setting: CaCiv1 with Cdk2 substrate, [33P]ATP, 30 min ambient temperature, read-out: IC50 as micromolar.

CaCiv1, sequence (A0A1D8PH53 entry or part of it): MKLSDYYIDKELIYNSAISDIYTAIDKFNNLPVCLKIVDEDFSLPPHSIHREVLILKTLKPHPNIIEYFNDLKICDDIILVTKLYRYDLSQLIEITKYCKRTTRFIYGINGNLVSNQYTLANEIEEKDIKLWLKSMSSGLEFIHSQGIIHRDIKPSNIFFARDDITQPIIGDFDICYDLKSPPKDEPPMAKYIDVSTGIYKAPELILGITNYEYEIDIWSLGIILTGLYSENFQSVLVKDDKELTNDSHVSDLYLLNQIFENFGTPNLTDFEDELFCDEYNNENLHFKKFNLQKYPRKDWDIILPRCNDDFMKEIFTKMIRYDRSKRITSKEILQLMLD
PLK1, sequence (P53350 whole entry, species assumed): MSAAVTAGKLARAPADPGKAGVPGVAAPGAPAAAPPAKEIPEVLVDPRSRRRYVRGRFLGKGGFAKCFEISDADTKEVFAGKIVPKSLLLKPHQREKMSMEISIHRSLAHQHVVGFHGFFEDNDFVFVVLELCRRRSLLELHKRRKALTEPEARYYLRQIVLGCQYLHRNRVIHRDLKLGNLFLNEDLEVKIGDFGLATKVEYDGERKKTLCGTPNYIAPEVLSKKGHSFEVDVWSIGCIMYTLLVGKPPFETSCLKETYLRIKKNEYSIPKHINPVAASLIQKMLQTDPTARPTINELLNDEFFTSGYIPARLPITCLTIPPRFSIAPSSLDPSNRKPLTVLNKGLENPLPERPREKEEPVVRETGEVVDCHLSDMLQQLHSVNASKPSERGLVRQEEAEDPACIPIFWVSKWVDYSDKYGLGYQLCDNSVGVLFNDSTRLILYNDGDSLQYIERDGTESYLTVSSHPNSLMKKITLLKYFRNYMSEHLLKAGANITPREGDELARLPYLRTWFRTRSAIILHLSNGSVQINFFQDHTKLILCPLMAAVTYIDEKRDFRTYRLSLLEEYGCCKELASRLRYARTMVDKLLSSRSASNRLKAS
JNK3 kinase, sequence (P53779 whole entry): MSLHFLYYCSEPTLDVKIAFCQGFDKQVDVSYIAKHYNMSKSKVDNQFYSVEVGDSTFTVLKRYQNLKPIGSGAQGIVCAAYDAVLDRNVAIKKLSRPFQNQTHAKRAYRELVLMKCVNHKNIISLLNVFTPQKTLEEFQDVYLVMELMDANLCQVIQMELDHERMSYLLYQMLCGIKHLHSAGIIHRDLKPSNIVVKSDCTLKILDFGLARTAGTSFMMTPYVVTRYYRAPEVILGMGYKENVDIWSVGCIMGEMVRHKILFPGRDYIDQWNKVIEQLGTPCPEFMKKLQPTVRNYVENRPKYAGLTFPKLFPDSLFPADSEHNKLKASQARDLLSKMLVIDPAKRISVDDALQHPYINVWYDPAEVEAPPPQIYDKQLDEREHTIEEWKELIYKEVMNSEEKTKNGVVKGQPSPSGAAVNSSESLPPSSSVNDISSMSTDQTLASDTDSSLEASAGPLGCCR

In the case of “Trans-N-[6-(5,6-dichloro-2,3-dihydro-1H-indol-1-yl)-9H-purin-2-yl]-1,4-cyclohexanediamine dihydrochloride [Example 1]”, the IC50 is 0.21 µM on PLK1, 0.29 µM at JNK3 kinase and 0.8 µM at CaCiv1 (setting [2]).
Take `Cl.Cl.N[C@H]1CC[C@H](Nc2nc(-n3cnc4ccccc43)c3nc[nH]c3n2)CC1` [Example 2, Trans-N-[6-(1H-benzimidazol-1-yl)-9H-purin-2-yl]-1,4-cyclohexanediamine dihydrochloride]: the inhibition at 20 µM in experiment [1] came out at 97%. Besides, the IC50 at GSK3beta is 0.6 µM; at CaCiv1, 0.5 µM. For the same molecule, the “percentage inhibition at 20 μM” value with Abl kinase was found to be 100%.
In the case of `CC1Cc2ccccc2N1c1nc(N[C@H]2CC[C@H](N)CC2)nc2[nH]cnc12` (stereo partly drawn) [Example 26, dihydrochloride], the IC50 came to 1.3 µM on GSK3beta and 0.31 µM on JNK3 kinase.
Take `O[C@H]1CC[C@H](Nc2nc(-n3cnc4ccccc43)c3nc[nH]c3n2)CC1` [Example 24, Trans-4-[[6-(1H-benzimidazol-1-yl)-9H-purin-2-yl]amino]cyclohexanol]: the figures for the inhibition at 20 µM at ZAP kinase and at SRC kinase were 96% and 99%, respectively. Further, the “percentage inhibition at 20 μM” value with Abl kinase is reported as 100%. The IC50 at CaCiv1 (setting [2]) was found to be 0.39 µM.
Regarding `OCC(CO)Nc1nc(-n2cnc3ccccc32)c2nc[nH]c2n1` [Example 18, 2-[[6-(1H-benzimidazol-1-yl)-9H-purin-2-yl]amino]-1,3-propanediol], the IC50 is 0.16 µM on PLK1 and 3.9 µM on CaCiv1 (setting [2]).
